Results reported in the NIST ThermoML archive (doi:10.1016/j.jct.2019.03.009).

Experiment: mn = molality of the nth substance listed, in mol/kg
Details: 298.15 K, 101.3 kPa, Liquid, Taylor dispersion method

CCC(N)C(=O)O (stereo not drawn) [(.+-.)-α-aminobutyric acid] + O
Details	binary diffusion coefficient [m2/s]
m1 = 0.001003	8.42e-10
m1 = 0.005014	8.41e-10
m1 = 0.01003	8.39e-10
m1 = 0.02005	8.38e-10
m1 = 0.05008	8.35e-10
m1 = 0.1	8.32e-10
